# Reference: paper PMC5537346, “Characterisation and pharmacological analysis of a crustacean G protein-coupled receptor: the red pigment-concentrating hormone receptor of Daphnia pulex” (Scientific Reports, 2017)
# “Also recorded” adds a separate entry of the source. Read-outs that look alike come from different tables or passages of the source. Where a SMILES comes first, the peptide text is derived from it. [ ]: non-standard residue; d: D form. pGlu = O=C1CC[C@@H](C(=O)O)N1
# What was measured:
# [1] = target: T1, Dappu-RPCHR (Daphnia pulex RPCH receptor) (Daphnia pulex, UniProt A0A240FBD5); assay: in vitro cell-based bioluminescence (aequorin Ca2+) assay on Dappu-RPCHR expressing CHO-WTA11 cells; settings: for activation of Dappu-RPCHR (in words): Locmi-ACP statement at 10 µM
# T1 sequence (A0A240FBD5 1-451): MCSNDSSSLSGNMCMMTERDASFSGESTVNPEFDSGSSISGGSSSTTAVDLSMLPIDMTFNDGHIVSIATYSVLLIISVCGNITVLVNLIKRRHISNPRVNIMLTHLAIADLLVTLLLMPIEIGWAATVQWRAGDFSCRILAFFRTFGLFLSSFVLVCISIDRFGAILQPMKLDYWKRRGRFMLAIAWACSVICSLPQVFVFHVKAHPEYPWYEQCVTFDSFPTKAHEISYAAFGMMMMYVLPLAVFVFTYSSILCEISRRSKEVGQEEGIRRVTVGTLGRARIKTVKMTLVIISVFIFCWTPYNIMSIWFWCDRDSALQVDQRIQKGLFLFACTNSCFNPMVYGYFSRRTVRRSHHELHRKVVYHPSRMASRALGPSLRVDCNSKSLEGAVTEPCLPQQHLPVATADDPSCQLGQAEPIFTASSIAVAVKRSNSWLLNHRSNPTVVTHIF
# Description: Pharmacological analyses were performed in Chinese hamster ovary (CHO) WTA11 cells stably co-expressing the bioluminescent protein apoaequorin and the promiscuous Gα16 subunit, which couples most agonist-induced GPCRs to the phospholipase C and Ca^2+ pathway, irrespective of their natural signalling cascade.
# CHO-WTA11 cells were cultured in monolayers in Dulbecco’s Modified Eagles Medium nutrient mixture F12-Ham (DMEM/F12) with L-glutamine, 15 mM HEPES, sodium bicarbonate and phenol red (Sigma-Aldrich) supplemented with 100 IU/ml penicillin and 100 µg/ml streptomycin (Gibco), 10% heat-inactivated fetal bovine serum (Gibco) and […] zeocin (Gibco). All cells were maintained in an incubator at 37 °C with a constant supply of 5% CO2.
# Transfections with pcDNA3.1-Dappu-RPCHR or empty pcDNA3.1 vector were carried out in T75 flasks at 60–80% confluency. Transfection medium was prepared using the Lipofectamine LTX Kit (Invitrogen) with 2.5 ml Opti-MEM® (Gibco), 12.5 µl PlusTM Reagent and 5 µg vector construct in 5 ml polystyrene round-bottom tubes. After a 5 min incubation period at room temperature, 30 µl LTX was added to the medium. After a further incubation period of 30 min at room temperature, the medium was removed and DNA/LTX mix was added dropwise to the cells followed by 3 ml of fresh complete medium.
# Following transfection, cells were incubated overnight (37 °C, 5% CO2), then 10 ml of cell medium was added followed by a second overnight incubation (37 °C, 5% CO2). Ligand-induced changes in intracellular Ca^2+ were then monitored in the cells as described below.
# CHO-WTA11 cells transfected with receptor construct (or empty vector) plasmid were detached with PBS, complemented with 0.2% EDTA (pH 8.0), and rinsed off the flask with DMEM/F12 with L-glutamine and 15 mM HEPES (Sigma-Aldrich). The number of viable and nonviable cells was determined using a TC20 automated Cell Counter (BIO-RAD). The cells were pelleted for 5 minutes at 800 rpm and resuspended to a density of 5.10^6 cells/ml in sterile filtered bovine serum albumin (BSA) medium (DMEM/F12 with L-glutamine and 15 mM Hepes, supplemented with 0.1% BSA) and loaded with 5 µM Coelenterazine_h (Invitrogen) for 4 h in the dark, at room temperature, while gently shaking to reconstitute the holo-enzyme aequorin. After a 10-fold dilution, cell solution (50 µl) was delivered to each well in a 96-well plate (~25000 cells/well) and cells were exposed to potential ligands reconstituted in BSA medium and distributed across the plate. In every row, BSA medium alone was placed in one well to serve as the negative control (blank). The Ca^2+ response was recorded for 30 s on a Mithras LB 940 (Berthold Technologies). After 30 s, 0.1% Triton X-100, a non-ionic surfactant, was added to the same well to measure the total cellular Ca^2+ response. The total response (ligand + Triton X-100), which is directly related to the number of cells present in the well, was used to normalise the response. The response of each negative control was subtracted from the luminescence obtained for wells within the same row. Calculations were made using the output file from the Microwin software (Berthold Technologies) in Excel (Microsoft). Further analysis was done in GraphPad Prism 5.
# [2] = test system: Palaemon pacificus; design: method as in PMID 19686751; settings: in vivo, shrimp Palaemon pacificus; cited from earlier work
# [3] = test system: Nezara viridula; design: method as in PMID 19686751; settings: in vivo; cited from earlier work
# [4] = Table 2, analogues of Dappu-RPCH
compound,measurement,setting,value
"CC(C)[C@H](NC(=O)[C@@H]1CCC(=O)N1)C(=O)N[C@@H](CC(N)=O)C(=O)N[C@@H](Cc1ccccc1)C(=O)N[C@@H](CO)C(=O)N[C@H](C(=O)N[C@@H](CO)C(=O)N[C@@H](Cc1c[nH]c2ccccc12)C(N)=O)[C@@H](C)O [Dappu-RPCH, pQVNFSTSWamide] ([pGlu]VNFSTSW-NH2)",EC50,[1],0.065 nM
same,concentration at which full activity was achieved,[1],0.1 nM
same,EC50,"[1]; Table 1, AKH/RPCH and related peptides, calculated from dose-response curves",0.0645 nM
same,EC50,[1]; [4],0.0645 nM
same,effect on pigment migration in a decapod crustacean,[2],could not affect pigment migration
same,biological activity in the green stink bug,[3],caused measurable biological activity
"CC(C)[C@H](NC(=O)[C@@H]1CCC(=O)N1)C(=O)N[C@@H](CC(N)=O)C(=O)N[C@@H](Cc1ccccc1)C(=O)N[C@@H](CO)C(=O)N[C@H](C(=O)N[C@@H](CO)C(=O)N[C@@H](Cc1c[nH]c2ccccc12)C(=O)O)[C@@H](C)O [[Trp-OH]Dappu-RPCH, pQVNFSTSW-OH] ([pGlu]VNFSTSW-OH)",EC50,[1]; [4],17.4 nM
same,fold lower affinity / potency relative to Dappu-RPCH,[1]; from EC50 values,270 fold
pQTFQYSRGWTNamide [Dappu-Crz],activation of Dappu-RPCHR (in words),[1],did not activate the receptor; also recorded: could not activate the Dappu-RPCHR at all
pQVTFSRDWSPamide [Locmi-ACP],activation of Dappu-RPCHR (in words),[1],only slightly active
same,% of the maximum activation,[1]; peptide concentration of 10 µM,30%
